The text below walks through data of PMC10527014 (Antiviral research, 2023).

Data set [1] concerns EV-D68. As to conditions: mouse model of EV-D68-associated AFM; ref Hixon et al., 2017; cited from earlier work.
In data set [2] the test system is enterovirus / picornavirus infections. As to conditions: cited from earlier work.
Data set [3] concerns EV-D68. The settings on record: read-out: EC50 against EV-D68; ref Liu et al., 2015b; cited from earlier work.
Another data set deals with EV-71. As to conditions: read-out: IC50 against EV-71 in vitro; ref Zhang et al., 2012; cited from earlier work.
Data set [4] deals with CYP3A4. The settings on record: 1 μM, rifampicin as positive control, previously tested.
For another data set, the system named is mouse-adapted CVB5. Description: Mouse model of CVB5-induced pancreatitis. Type of data set: in vivo, BALB/c mice. The settings on record: CVB5-infected mice, Fig. S20.
Data set [5] deals with Coxsackievirus B3-Woodruff (CVB3). The data set is described as follows: microbe, parasite or virus in culture. The settings on record: B3|CVB3, HeLa.
For data set [6], the target named is CYP3A4 (Homo sapiens, UniProt P08684). The settings on record: human liver microsomes, at higher concentrations (Fig. S21). For orientation: Microsomes from liver hold many membrane-bound enzymes, among them those of drug oxidation.
CYP3A4 (Homo sapiens, UniProt P08684), sequence (P08684 whole entry): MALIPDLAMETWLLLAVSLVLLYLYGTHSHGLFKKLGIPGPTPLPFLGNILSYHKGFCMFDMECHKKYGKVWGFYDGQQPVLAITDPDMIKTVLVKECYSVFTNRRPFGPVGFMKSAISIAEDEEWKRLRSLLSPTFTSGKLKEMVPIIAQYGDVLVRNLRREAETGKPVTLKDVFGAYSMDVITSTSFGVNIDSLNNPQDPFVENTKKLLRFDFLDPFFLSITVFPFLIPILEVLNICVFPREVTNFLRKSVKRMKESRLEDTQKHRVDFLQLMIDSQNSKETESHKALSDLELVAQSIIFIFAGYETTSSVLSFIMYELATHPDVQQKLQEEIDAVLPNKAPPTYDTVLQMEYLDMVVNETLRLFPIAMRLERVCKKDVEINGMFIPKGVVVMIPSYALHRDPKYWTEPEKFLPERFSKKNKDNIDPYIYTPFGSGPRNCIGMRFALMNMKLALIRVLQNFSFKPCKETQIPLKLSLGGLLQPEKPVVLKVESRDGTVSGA
The test system of data set [7] is EV-D68 MP30 PP (mouse-adapted US/MO/14-18949). The settings on record: day 3 p.i., during animal model development; ref Hurst et al., 2019; cited from earlier work.
The target in data set [8] is T1, pregnane X-receptor (PXR) (Homo sapiens, UniProt O75469).
T1 sequence (O75469 1-434): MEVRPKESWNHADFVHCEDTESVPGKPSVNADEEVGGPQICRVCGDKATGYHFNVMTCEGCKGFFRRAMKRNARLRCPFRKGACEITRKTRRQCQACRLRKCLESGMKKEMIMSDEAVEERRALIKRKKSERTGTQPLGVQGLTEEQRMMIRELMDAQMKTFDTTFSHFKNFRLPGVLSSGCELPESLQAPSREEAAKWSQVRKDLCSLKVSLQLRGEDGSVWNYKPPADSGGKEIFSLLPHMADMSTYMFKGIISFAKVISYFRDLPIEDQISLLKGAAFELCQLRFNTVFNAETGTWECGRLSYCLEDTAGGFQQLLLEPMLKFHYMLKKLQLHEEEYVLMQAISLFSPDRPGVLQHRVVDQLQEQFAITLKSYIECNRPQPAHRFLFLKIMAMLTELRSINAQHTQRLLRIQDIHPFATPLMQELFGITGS
The data set is described as follows: PXR agonist activity.

In data set [9] the test system is Coxsackievirus B3-Woodruff (CVB3). Type of data set: cell-based. As to conditions: Coxsackievirus, B3|CVB3, HeLa, read-out: Inhibitory concentration EC50 against CVB3-Woodruff.
The subject of data set [10] is 215 clinical isolates of EV serotypes. As to conditions: ~90% of isolates; ref Pevear et al., 1999; cited from earlier work.
The test system of the next data set is Coxsackievirus B5 (CVB5). Description: CVB5 CPE rescue. Type of data set: cell-based. The settings on record: Enterovirus B, B5|CVB5, Vero, read-out: EC50 against CVB5.
For data set [11], the system named is EV-D68 MP30 PP (mouse-adapted). The data set is described as follows: EV-D68 neurological infection. Type of data set: in vivo, AG129 mice.
In data set [12] the test system is EV-D68 MP30 PP (mouse-adapted US/MO/14-18949). Description: EV-D68 respiratory infection model in four-week-old AG129 mice. As to conditions: days 1 and 3 p.i., P≤0.05 vs placebo; guanidine 100 mg/kg/day. Type of data set: in vivo.

Where two headings read alike, the source gives them in different places. Where only a bound is given, the exact number is not on record here.

For the compound `CNCCC(Oc1ccc(C(F)(F)F)cc1)c1ccccc1` (stereo not shown) [fluoxetine], the Viral load result in the data set with EV-D68 [1] was “did not reduce the viral load”.
`Cc1cc(CCCOc2c(C)cc(-c3noc(C(F)(F)F)n3)cc2C)on1` [Pleconaril]: in [2] (400 mg three times a day over five days, ref Hayden et al., 2003), the “Effect on the treatment of the common cold” value is “no statistically significant effect”. Also, the “Patients with clinical improvement” value in [2] (chronic meningoencephalitis, ref Aradottir et al., 2001, Rotbart et al.) was 78%. Further, the “Neonates in whom treatment proved effective” value in [2] (neonates with severe enteroviral hepatitis, ref Aradottir et al., 2001) is recorded as 2 of 3. Also, the EC50 with EV-D68 [3] is 0.43 µM; in data set [5] (read-out: Inhibitory concentration EC50 against CVB3-Woodruff, HeLa cells, adding drug to virus and then infecting at MOI 1 PFU / cell, ± SEM), 0.045 µM; in [5] (read-out: Inhibitory concentration EC50 against CVB3-Woodruff, HeLa cells, adding drug to virus and then infecting at MOI 3 PFU / cell, ± SEM) it was 0.333 ± 0.21 µM; in data set [9] it was 0.15 ± 0.01 µM; with Coxsackievirus B5 (CVB5) it was 0.00066 µM. Moreover, the half-inhibitory concentration (IC50) – broadly, the concentration that gives 50% inhibition – with EV-71 was 0.34 to 1.42 µM. Besides, the “CYP3A induction, of control” value in the data set with CYP3A4 [4] is on record as 13 % of control. This compound had a CYP3A induction with CYP3A4 [4] (single donor in duplicate) of 1.7 x. The “Histology of pancreatic tissue” value in the data set with mouse-adapted CVB5 is recorded as “no signs of tissue damage”. Besides, the “Effect on CYP3A4 (in words)” value on CYP3A4 [6] was “activation (or autoactivation) of CYP3A4”. Besides, the Lung virus titers result in data set [7] is “did not demonstrate any antiviral activity”. Also, the “PXR agonism (in words)” value in [8] is reported as “neither 11526092 nor pleconaril is an agonist”. The 90% effect concentration (IC90) (commonly the concentration needed for an effect of 90%) in data set [10] was at most 0.18 µM.
Consider `Cl.N=C(N)N` [guanidine, Guanidine HCl, reference compound], for which the Neurological scores entry in data set [11] (post-challenge study) was “reduced the neurological score on day 3 post-infection”. For the same compound, the “Mice protected from challenge infection” value in data set [11] (post-challenge study (treatment 4 hours post-infection)) was over 80%; in data set [11] (pre-challenge study (treatment 2 hours pre-infection)), 100%. Moreover, the “Protection from weight loss” value in data set [11] (pretreatment, P≤0.0001, Fig. S19) is “significant protection”. In [12], the Lung virus titers entry is “showed a reduction”.
